Measurements: publication PMC5341858, “Molecular regulation of apoptotic machinery and lipid metabolism by mTORC1/mTORC2 dual inhibitors in preclinical models of HER2+/PIK3CAmut breast cancer” (Oncotarget, 2016)

Key:
Assay type in all cases: cell-based
MDA-MB-231 cells = assay: Glucose-to-lipid conversion (de novo lipid synthesis); conditions: similar treatment, 4 h saturating dose
Protocol: (§1) Cellular glucose-to-lipid conversion was measured as described. Briefly, cells were pretreated with inhibitors for 2 h, incubated for 2 h in medium containing 2 μCi/mL D-[1-14C] glucose (PerkinElmer, NEC043X001MC). Total lipids were extracted twice with 300 μL hexane:isopropanol (3:2; vol:vol). Cell debris was carefully removed by centrifugation at 14,000 rpm for 5 min using a microcentrifuge. Radioactive lipids were dried, redissolved with 100 μL of chloroform and determined by liquid scintillation counting. A duplicate assay plate without radioactive glucose label was used to count the number of cells per treatment. Glucose to total lipid conversion rate is the radioactive counts from the extracted lipid normalized by the number of cells per hour of ^14C-glucose incubation. For acetyl-CoA assay, cells grown in 96-well plates were washed and lysed in 40 μL/well using lysis buffer. Cell lysates were transferred to V-bottom plates, cleared by centrifugation. 30 μL of the cleared cell lysates were subjected to acetyl-CoA measurement using an acetyl-CoA assay kit (Sigma, MAK-039) following manufacturer's assay manual. Duplicate assay plates were used to count the number of cells per treatment for normalization in determining cellular acetyl-CoA levels.

MDA-MB-453 cells [1] = assay: as above; conditions: 4 h, saturating dose (5 μM MTI-31, 1 μM rapamycin)
Protocol: as §1

MDA-MB-453 cells [2] = assay: Total cellular acetyl-CoA level; conditions: 24 h
Protocol: as §1

Row | Structure (SMILES) | effect on de novo lipid synthesis (MDA-MB-231 cells) | suppression of de novo lipid synthesis (14C-glucose-to-lipid conversion rate) (MDA-MB-453 cells [1]) [%] | reduction in acetyl-CoA (MDA-MB-453 cells [2]) [%]
1 | COc1ccc(-c2ccc3c(N4CCOC[C@@H]4C)nc(N4CCOC[C@@H]4C)nc3n2)cc1CO [AZD8055] | did not significantly reduce lipid synthesis | 63 | –
2 | CO[C@H]1C[C@@H]2CC[C@@H](C)[C@@](O)(O2)C(=O)C(=O)N2CCCC[C@H]2C(=O)O[C@H]([C@H](C)C[C@@H]2CC[C@@H](O)[C@H](OC)C2)CC(=O)[C@H](C)/C=C(\C)[C@@H](O)[C@@H](OC)C(=O)[C@H](C)C[C@H](C)/C=C/C=C/C=C/1C [rapamycin] | did not significantly reduce lipid synthesis | 32 | 45
